Assay [1] concerns murine melanoma B16(F10) cells. The assay can be described thus: Inhibition of UV-induced Melanogenesis test. The class given is cell-based. As to conditions: for Percent inhibition of UV-induced melanogenesis (mean ± SD): B16(F10), UVB 200 mJ/cm^2, 24 h post UVB. The protocol:
One or more samples of B16(F10) cells were prepared and each pre-treated with a test sample followed by UVB exposure as described below. Upon treatment, UVB stimulated melanogenesis in the cells and test compounds were evaluated based on their ability to inhibit or slow down the rate of melanogenesis. The cells were lysed for protein measurement at 595 nm and melanin content at 470 nm. The potency of the test compounds were determined by comparing the % inhibition achieved by the test compounds against the treated control.
On a first day, murine melanoma B16(F10) cells were seeded in 60 mm plates with a density of ˜1 million cells per plate and incubated for […] at 37° C., 5% CO2. On day 2, the cells with a confluency rate of 90-100% were treated with test compound at a predetermined concentration (e.g. 25 mg/mL) for two hours (for test compound samples only) followed by exposure to UVB 200 mJ/cm^2 (for test samples and treated control). The cells were harvested on day 3 (24 h post UVB irradiation for test samples and treated control) and lysed in protein lysis buffer (50 mM Tris, pH 8, 2 mM EDTA, 150 mM NaCl, and 1% TRITON X 100—a nonionic surfactant purchased from BioRad Cat.#: 161-0407), and centrifuged.
The resulting supernatant was mixed well with a protein dye assay (Bio-rad protein assay reagent) and a spectrophotometer (Molecular Devices VERSAmax) was used to determine the optical density (OD) of the sample at 595 nm, which was recorded as the “protein assay OD.” The cell pellet remaining after removal of the supernatant was dissolved in alkaline DMSO buffer, and the resulting solution was similarly tested using a spectrophotometer for melanin absorbance assay at 470 nm. The absorbance was recorded as the “melanin assay OD.”
Control samples of B16(F10) murine melanoma cells were prepared and harvested as indicated above, but without addition of any test sample and without exposure to UVB (untreated control). Other samples were prepared and harvested as indicated above, but without addition of test sample and exposed to UVB as described below (treated control).
Three samples each of the untreated control, treated control, and each test sample were made and the Melanin OD and Protein OD measured for each. The normalized melanin for each untreated control (3 samples), treated control (3 samples) and test sample (3 samples for each test compound) was calculated via the following equation: Normalized Melanin=melanin assay OD/protein assay OD. The averages of the Normalized Melanin of the untreated controls and treated controls were calculated (sum of the three calculated values/3).
The Induction value of the Control (which can be thought of as the UV-induced increase in melanin, without the benefit of any test sample to reduce melanogensis) was determined by subtracting the average Normalized Melanin of untreated control from the average Normalized Melanin of treated control. Similarly, the Induction value of each test sample (which can be thought of as the amount of additional melanin over and above the baseline of the sample not treated with UV) was then calculated by subtracting average Normalized Melanin of untreated control from the Normalized Melanin of the test sample. The Percent Inhibition for each test sample was then calculated via the equation: Percent Inhibition=100×[(Induction value of Control−Induction value with Test Sample)/Induction value of Control].
The average Percent Inhibition was calculated as the sum of the three resulting Inhibition % values for each test sample divided by three.

The subject of a further assay is Mushroom tyrosinase. The assay can be described thus: Tyrosinase inhibition test (mushroom tyrosinase, L-dopa, OD 492 nm). The assay is classed as biochemical. As to conditions: 10 mM L-dopa, 37° C., 30 min, duplicate. The protocol: Ultraviolet (UV) radiation from the sun is the most important external stimulus for melanin formation leading to skin darkening. Reducing melanin formation in the skin may be achieved by inhibiting multiple steps of the melanin biogenesis process. Tyrosinase is the key regulatory enzyme of melanogenesis. Agents that inhibit tyrosinase will reduce melanin synthesis.
1-Hydroxyl 3,5-bis(4′hydroxyl styryl)benzene (0.0001, 0.001, and 0.01% w/v) was tested for tyrosinase inhibition as follows.
Mushroom tyrosinase samples (Sigma, T7755, 10 U/reaction) were treated with the samples of 1-hydroxyl 3,5-bis(4′hydroxyl styryl)benzene and control samples. Reaction was initiated by addition of 10 mM L-dopa (Research Organics, #2111D) at 37° C. Tyrosinase activity was measured by recording light absorption (optical density) at 492 nm after 30 min for both control samples (no exposure to test compound) and test samples that were exposed to the test compound.
Percent Inhibition of Tyrosinase was related to the reduction in absorption at 492 nm (relative to the control) by the following formula: Percent Inhibition of Tyrosinase=[Tcontrol−Tsample/Tcontrol)]*100 where Tcontrol is the tyrosinase activity of the control and Tsample is the tyrosinase activity in the presence of test compound. Samples were tested in duplicate and Percent Inhibition of Tyrosinase was averaged and standard deviation was reported.

Assay [2] relates to MelanoDerm skin epidermal equivalent tissues (NHEK and NHM). The assay is described as follows: Inhibition of pigmentation in skin epidermal equivalent tissues (MatTek MelanoDerm MEL-300-B). The class given is cell-based, human. As to conditions: measured day 9, vs vehicle-treated control. As to the method: Skin epidermal equivalent tissues obtained from MatTek's MelanoDerm™ System were used as follows. MatTek's MelanoDerm™ System consists of normal, human-derived epidermal keratinocytes (NHEK) and melanocytes (NHM) which have been cultured to form a multilayered, highly differentiated model of the human epidermis. Specifically, MEL-300-B tissues, each 9 mm in diameter were used in the following tests.
1-Hydroxyl 3,5-bis(4′hydroxyl styryl)benzene and its piperazine salt were prepared in an appropriate vehicle and applied topically to the skin model daily. The experiment lasted for eight days. Measurement was taken on day 9.
The Degree of Lightness for each skin model tissue (L-Value) was measured using a spectrophotometer (Konica Minolta CM-2600d). The ΔL (degree of lightness as compared to vehicle-treated control) for each test sample was calculated using following formula: ΔL=L-value of treated sample−L-value of control sample

Assay [3] concerns murine melanoma B16(F10) cells. The assay can be described thus: Inhibition of UV-induced Melanogenesis test. The class given is cell-based. As to conditions: 0.0001%; average of S1 and S2.
Where [4] appears, read: 0.5% topically daily for eight days.

Where “and” joins values, the source holds several entries; their conditions need not be identical. Identical values can stand only once.

For the molecule “1-hydroxyl 3,5-bis(4′hydroxyl styryl)benzene - Piperazine salt”, the entries for the “Percent inhibition of UV-induced melanogenesis (mean ± SD)” value in assay [1] (0.00001% test compound), in assay [1] (0.00005% test compound) and in assay [1] (0.0001% test compound) were 13.93 ± 11.33%, 33.52 ± 1.54% and 55.70 ± 4.44%, respectively. Further, the figures for the “Percent Inhibition of Tyrosinase activity (mean ± standard deviation)” value with Mushroom tyrosinase (0.0001% w/v test compound), in the assay with Mushroom tyrosinase (0.001% w/v test compound) and in the assay on Mushroom tyrosinase (0.01% w/v test compound) were 2.03 ± 3.94%, 11.52 ± 3.16% and 16.64 ± 2.76%, respectively. For the same molecule, the “Degree of Lightness (ΔL)” value was 1.46 ± 0.71 in assay [2] (0.1% topically daily for eight days), 2.83 ± 0.41 in assay [2] (0.25% topically daily for eight days) and 4.60 ± 0.61 in assay [2] (setting [4]).
As for `Oc1ccc(/C=C/c2cc(O)cc(/C=C/c3ccc(O)cc3)c2)cc1` [1-Hydroxyl 3,5-bis(4′hydroxylstyryl)benzene], in assay [3], the “Percent Inhibition for Test sample (Ave)” value is reported as “Ave = (39.05 + 41.93)/2 = 40.49%”. The “Percent inhibition of UV-induced melanogenesis (mean ± SD)” value in assay [1] (0.00001% test compound) is recorded as 18.93 ± 5.92%; in assay [1] (0.00005% test compound), 33.27 ± 4.39%; in assay [1] (0.0001% test compound), 40.49 ± 2.04%. Also, the “Induction value with Test sample” value in assay [1] (0.0001%, single test samples S1, S2, Normalized Melanin minus untreated control 0.122, listed as 1-hydroxyl 3,5-bis(4′hydroxyl styryl)benzene—Free Phenol) is 0.19 − 0.122 = 0.068 and 0.187 − 0.122 = 0.065. Further, the “Normalized Melanin value (melanin assay OD/protein assay OD)” value in assay [1] (0.0001%, single test samples S1, S2, listed as 1-hydroxyl 3,5-bis(4′hydroxyl styryl)benzene—Free Phenol) is 0.19 (S1) and 0.187 (S2). Moreover, the “Percent Inhibition of Tyrosinase activity (mean ± standard deviation)” value with Mushroom tyrosinase (0.0001% w/v test compound) is 3.3 ± 1.95%; with Mushroom tyrosinase (0.001% w/v test compound), 8.21 ± 1.27%; in the assay on Mushroom tyrosinase (0.01% w/v test compound), 11.84 ± 3.22%. Besides, the “Degree of Lightness (ΔL)” value in assay [2] (setting [4]) came out at 4.23 ± 0.64.

Values taken from patent US8758731B2, “Skin lightening by topical application of 1-hydroxyl 3,5-bis(4′hydroxyl styryl)benzene” (Johnson & Johnson Consumer Companies, Inc., priority 2012, dated 2014).
